The values that follow are results of earlier work, collected in patent publication US20060269596A1, “Controlled release compositions comprising an acylanilide” (priority 2005, published 2006).

Each structure is given as a SMILES string.

For data set [1] the following is noted: 37 C.

`CC(O)(CS(=O)(=O)c1ccc(F)cc1)C(=O)Nc1ccc(C#N)c(C(F)(F)F)c1` (racemic) [Bicalutamide]: the solubility in water in data set [1] was 5 mg per 1000 mL. In addition, the “absorption following oral administration” value (oral) was “well-absorbed”. Besides, the “effect of co-administration with food on rate or extent of absorption” value (with food) is listed as “no clinically significant effect”.
